Measured values: ChEMBL document CHEMBL1269002, “A protecting group-free synthesis of deazathiamine: a step toward inhibitor design” (Bioorg Med Chem Lett, 2010)

Tests used:
[1] = Inhibition of Mycobacterium tuberculosis 2-hydroxy-3-oxoadipate synthase-catalyzed reduction of ferricyanide
[2] = Competitive inhibition of Mycobacterium tuberculosis 2-hydroxy-3-oxoadipate synthase-catalyzed reduction of ferricyanide

| SMILES | IC50 [1] | Ki [2] |
| --- | --- | --- |
| Cc1ncc(Cc2csc(CCOP(=O)(O)OP(=O)(O)O)c2C)c(N)n1 | 6.7 µM | 3.5 µM |
| Cc1ncc(Cc2csc(CCO)c2C)c(N)n1 [3-DEAZATHIAMINE] | 144 µM | 76 µM |
